What all share (test): NCI anticancer screen, dose series, 48 h
The test system of assay [1] is A549.
For assay [2], the system named is K562.
In assay [3] the test system is SK-MEL-5.
The subject of assay [4] is CAKI-1.
In assay [5] the test system is NCI/ADR-RES.
For assay [6], the system named is SNB-75.
Assay [7] deals with IGROV-1.
Assay [8] has as its system SW-620.
Assay [9] has as its system EKVX.
Assay [10] deals with HL-60.
Assay [11] deals with OVCAR-8.
The test system of assay [12] is NCI-H23.
Assay [13] concerns SK-MEL-2.
In assay [14] the test system is DMS-273.
Assay [15] has as its system COLO 205.
Assay [16] deals with OVCAR-4.
Assay [17] has as its system UO-31.
For assay [18], the system named is LOX IMVI.

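Cultured in 96-well plates, cells were exposed to test compound for 48 hours across five concentrations. Abbreviation: GI50, concentration required for 50% inhibition of growth.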 The source made the active and inactive calls. Cut-off read from the data, not from the text of the source: active = GI50 up to about 1.1 µM and inactive = higher.

With `CCCCC(C)C1CCC2(C)C=CC(=O)C(C)=C2C1O` (configuration not stated), the GI50 in [1], in assay [2], in assay [3], in assay [4], in assay [5] and in assay [6] was > 100 µM (inactive) throughout. The GI50 in assay [7], in assay [8], in assay [9], in [10], in assay [11] and in assay [12] was > 100 µM (inactive) each time. Moreover, the GI50 in assay [13], in [14], in [15], in assay [16], in [17] and in assay [18] was > 100 µM (inactive) throughout.
Regarding `Cc1c2ccnc(-c3ccccc3)c2cc2c1[nH]c1ccccc12`, the GI50 in [1] was 1.29 µM (inactive); in assay [2], 1.58 µM (inactive); in assay [3], 0.614 µM (active); in assay [4], 0.655 µM (active); in [5], 0.492 µM (active); in assay [6] it was 2.33 µM (inactive). In addition, the GI50 was 2.63 µM (inactive) in [7]; 2.48 µM (inactive) in assay [8]; 2.92 µM (inactive) in [9]; 2.09 µM (inactive) in assay [10]; 1.13 µM (inactive) in assay [11]; 1.01 µM (active) in [12]. In addition, the GI50 in assay [13] is 2.62 µM (inactive); in [14], 0.425 µM (active); in assay [15] it was 0.735 µM (active); in assay [16] it was 2.56 µM (inactive); in [17], 1.33 µM (inactive); in [18], 1.05 µM (active).
As for `CC1C(O)C2(Oc3cc4c(c5c3[C@@H](CC5O)[C@H]2C)CCC2Cc3nc5c(nc3C[C@@]42C)CC2CCC3C4=C[C@H]6O[C@@]7(O[C@@](C)(CO)C[C@@H]7O)C(C)[C@@]6(O)[C@]4(C)[C@@H](O)CC3[C@]2(C)C5)OC1(C)C` (some centres not stated), the GI50 in assay [1] was 0.0581 µM (active); in assay [2], 0.098 µM (active); in [3], 0.237 µM (active); in assay [4], 0.148 µM (active); in [5], 2.9 µM (inactive); in assay [6], 0.00543 µM (active). Further, the GI50 in assay [7] was 0.128 µM (active); in [8], 0.201 µM (active); in assay [9], 0.123 µM (active); in [10] it was 0.0644 µM (active); in assay [11], 0.428 µM (active); in assay [12], 0.114 µM (active). The GI50 is 0.114 µM (active) in assay [13]; 0.0304 µM (active) in assay [14]; 0.152 µM (active) in assay [15]; 0.498 µM (active) in assay [16]; 1.08 µM (active) in [17]; 0.115 µM (active) in [18].
`O=NN(CCCl)C(=O)NC1CCSc2ccccc21` (configuration not stated): the GI50 is > 100 µM (inactive) in assay [1]; > 62.4 µM (inactive) in [2]; > 100 µM (inactive) in assay [3]; > 100 µM (inactive) in [4]; > 100 µM (inactive) in assay [5]; 87.3 µM (inactive) in assay [6]. Also, the GI50 in assay [7] was > 100 µM (inactive); in [8], > 100 µM (inactive); in [9] it was 28.3 µM (inactive); in [10], 23.3 µM (inactive); in [11], > 100 µM (inactive); in [12], > 100 µM (inactive). Also, the GI50 in assay [13] is > 100 µM (inactive); in assay [14], > 100 µM (inactive); in assay [15] it was > 100 µM (inactive); in [16] it was > 100 µM (inactive); in [17], > 91.2 µM (inactive); in assay [18], 82 µM (inactive).

The values are drawn from ChEMBL document CHEMBL1201862, “PubChem BioAssay data set” (2004).
